# Laboratory results taken from patent US20230248847A1, “MULTIFUNCTIONAL NANOPARTICLES FOR THERAGNOSIS” (priority 2018, published 2023).
# Columns and labels:
# [1] = tested on: orthotopic xenograft tumours of MDA-MB-231 breast cancer cell line; experiment: In vivo therapeutic efficacy, orthotopic MDA-MB-231 breast cancer xenograft; parameters: species or system NSG mice
# Experimental: An orthotopic xenotransplantation of the triple-negative human MDA-MB-231 breast cancer cell line was performed in immunocompromised female NSG mice. The mice (5 per group) were divided into 3 groups and treated according to the protocol approved by the Institutional Animal Care and Use Committee (IACUC) of the University of Granada and the Regional Government of Andalusia according to the European Directive on the protection of animals used for scientific purposes (2010/63/EU) and Spanish law (Royal Decree 53/2013). […]
# [2] = In vivo toxicity assays (survival, external signs, weight, motor activity); parameters: species or system NSG mice; conditions: for external side effects observed: intravenous every 3 days
# Experimental: All the in vivo experiments were performed in NOD scid gamma mice (NSG, NOD.Cg-Prkdcscid II2rgtmlWjl/SzJ). The animal wellbeing and experimental methods were carried out according to institutional guidelines (Research Ethics Committee of University of Granada, Spain) and international guidelines (European Community Council Directive 86/609). All the animals (n=5 per group) were kept in a micro-ventilated cage system with a 12-h light/darkness cycle, and handled in a laminar flow cabinet to maintain the specific pathogen-free conditions. To establish orthotopic xenograft tumours, female mice six to eight weeks of age were used. The mice were anaesthetised by means of the inhalation of isoflurane and tumours were generated in the right breast by means of subcutaneous injections of 5×10^5 cells/mouse mixed with Corning® Matrigel® Matrix and with 26-gauge needles. The intravenous administration of PBS (control), free DOX, and NPs in the tail vein of the mice was performed every three days for a period of 43 days, as was the fluorescence evaluation by means of IVIS® (Perkin Elmer). Tumour growth was evaluated twice a week with a digital calibrator and tumour volume was calculated by means of the formula V=(length) 2×width×π/6. The weight of the mice was also measured every three days. The endpoint of the experiment was day 44. […] During that month, the fluorescence of the mice was analyzed in IVIS® once a week. Lastly, the mice were sacrificed by cervical dislocation and the tumours were extirpated, photographed, and analyzed by means of IVIS®.
# In another assay, a series of experiments were carried out to control the in vivo toxicity of the treatment. […] The percentage of survival (FIG. 12) during the treatment period was 100% both for mice treated with NPs and for controls. However, treatment with DOX caused a high impact on survival. After 30 days of treatment, there was a drastic decrease in the percentage of survival (30%). This effect could be attributed to the inherent systemic toxicity of this anti-tumour drug and to the serious side effects of this conventional chemotherapy treatment.
# Furthermore, in order to observe the toxic effect of the treatment at the central nervous system level, a standardised protocol for testing movement was carried out on day 30 in a cage with a camera prepared for this purpose. This camera analyzes the distance the mouse travels in 24 hours.
smiles,measurement,setting,value
COc1cccc2c1C(=O)c1c(O)c3c(c(O)c1C2=O)C[C@@](O)(C(=O)CO)C[C@@H]3O[C@H]1C[C@H](N)[C@H](O)[C@H](C)O1 [doxorubicin],histological analysis of xenograft tumour tissues (cellularity),"[1]; haematoxylin/eosin and DAPI staining after treatment, vs control group",cellularity decreased significantly
same,therapeutic effect on tumour growth / tumour volume,"[1]; intravenous every 3 days for 43 days, NSG mice, n=5 per group, vs PBS",significant inhibition of tumour growth
same,time after which inhibition of tumour growth was significant,"[1]; intravenous every 3 days, NSG mice",3 weeks
same,external side effects observed,"[2]; NSG mice, listed as DOX",high cutaneous toxicity caused in the tail
same,external side effects observed,"[2]; NSG mice, listed as free DOX","weight loss, goose bumps, behaviour disorders, and damaged tail"
same,percentage of survival,"[2]; after 30 days of treatment, NSG mice",30%
same,weight of mice during treatment,[2]; compared with untreated control mice or mice treated with theranostic NPs,significant weight reduction
same,motor activity (distance travelled in 24 hours),"[2]; day 30, cage with camera",significant decrease in mouse mobility
